The values below come from ChEMBL document CHEMBL5579845, “Ophiobolin A derivatives with enhanced activities under tumor-relevant acidic conditions” (2024).

Assay [1] is described as follows: Antiproliferative activity against human GBM43 cells cultured under pH 6.5 assessed as reduction in cell viability by measuring growth inhibition incubated for 48 hrs by MTT assay. The class given is functional. For orientation: Tetrazolium assays rely on reduction of a dye to a coloured formazan, in cell work by metabolically active cells.
A short description of assay [2]: Antiproliferative activity against human GBM43 cells cultured under pH 7.5 assessed as reduction in cell viability by measuring growth inhibition incubated for 48 hrs by MTT assay. The class given is functional.
Assay [3] can be described thus: Potency index, ratio of ophiobolin A GI50 to test compound GI50 for antiproliferative activity against human GBM43 cells cultured under pH 6.5 assessed as reduction in cell viability by measuring growth inhibition incubated for 48 hrs by MTT assay. In kind it is functional.
In a further assay the test system is U-87 MG. Briefly: Antitumor activity against human U-87 MG cells stably expressing luciferase reporter xenografted in female athymic nude mouse assessed as median survival time at 24 mg/kg, iv administered for six times starting from day 12 post tumor development and measured upto 60 days post tumor development. To be noted: time <= 48 day. The class given is functional, U-87MG ATCC. On the technique in general: In xenograft studies the graft and the host belong to different species.

The structures appear in SMILES notation.

In the case of `CO[C@H]1O[C@@]2(OC)C[C@@](C)(O)[C@H]3C[C@@]4(C)CC[C@@]5(O[C@@H](C=C(C)C)C[C@@H]5C)[C@@H]4C/C=C/1[C@H]32`, in assay [1], the GI50 was found to be 500 nM.

As for `CC(C)=C[C@H]1C[C@H](C)[C@]2(CC[C@]3(C)C[C@H]4[C@H](C(=O)C[C@@]4(C)O)/C(=C/OCCCl)[C@H](O)C[C@H]32)O1`, the GI50 came out at 650 nM in assay [1] and 1070 nM in assay [2]. With `CC(C)=C[C@H]1C[C@H](C)[C@]2(CC[C@]3(C)C[C@H]4[C@H](C(=O)C[C@@]4(C)O)/C(C(O)OCCBr)=C\C[C@H]32)O1` (some centres not stated), the RatioGI50 in assay [3] came out at 2. For the same compound, the GI50 came out at 150 nM in assay [1] and 270 nM in assay [2]. On to `CC(C)=C[C@H]1C[C@H](C)[C@]2(CC[C@]3(C)C[C@H]4[C@H](C(=O)C[C@@]4(C)O)/C(C(O)OC(C)C)=C\C[C@H]32)O1` (some centres not stated), for which the GI50 in assay [1] was 340 nM. Turning to `COCCOC(O)/C1=C/C[C@@H]2[C@](C)(CC[C@@]23O[C@@H](C=C(C)C)C[C@@H]3C)C[C@H]2[C@@H]1C(=O)C[C@@]2(C)O` (some centres not stated), in assay [1], the GI50 was 1090 nM. Take `CC(C)=C[C@H]1C[C@H](C)[C@]2(CC[C@]3(C)C[C@H]4[C@H](C(=O)C[C@@]4(C)O)/C(C(O)OCCF)=C\C[C@H]32)O1` (some centres not stated): the GI50 in assay [1] is 1700 nM; in assay [2] it was 2890 nM.

For `CC(C)=C[C@H]1C[C@H](C)[C@]2(CC[C@]3(C)C[C@H]4[C@H](C(=O)C[C@@]4(C)O)/C(=C/OCCF)[C@H](O)C[C@H]32)O1`, the GI50 in assay [1] stood at 1500 nM; in assay [2], 2770 nM. As to `CC(C)=C[C@H]1C[C@H](C)[C@]2(CC[C@]3(C)C[C@H]4[C@H](C(=O)C[C@@]4(C)O)/C(C(O)OCCCl)=C\C[C@H]32)O1` (some centres not stated), the values for the GI50 in assay [1] and in assay [2] were 750 nM and 2770 nM, respectively.

For the compound `CC(C)=C[C@H]1C[C@H](C)[C@]2(CC[C@]3(C)C[C@H]4[C@H](C(=O)C[C@@]4(C)O)/C(=C/OCCBr)[C@H](O)C[C@H]32)O1`, in assay [3], the RatioGI50 is on record as 2. In addition, the GI50 in assay [1] came to 140 nM; in assay [2] it was 490 nM. Consider `CC(C)=C[C@H]1C[C@H](C)[C@]2(CC[C@]3(C)C[C@H]4[C@H](C(=O)C[C@@]4(C)O)/C(=C/OCC(F)(F)F)[C@H](O)C[C@H]32)O1`, for which, in assay [1], the GI50 was 830 nM. Regarding `CO[C@@H]1O[C@@]2(OC)C[C@@](C)(O)[C@H]3C[C@@]4(C)CC[C@@]5(O[C@@H](C=C(C)C)C[C@@H]5C)[C@@H]4C/C=C/1[C@H]32`, the GI50 in assay [1] was 1460 nM. `COc1cccc2c1C(=O)c1c(O)c3c(c(O)c1C2=O)C[C@@](O)(/C(CO)=N/NC(=O)CCCCCN1C(=O)C=CC1=O)C[C@@H]3O[C@H]1C[C@H](N)[C@H](O)[C@H](C)O1` [ALDOXORUBICIN]: in the assay with U-87 MG, the MST worked out at 62 days. Consider `CC(C)=C[C@H]1C[C@H](C)[C@]2(CC[C@]3(C)C[C@H]4[C@H](C(=O)C[C@@]4(C)O)/C(C=O)=C\C[C@H]32)O1` [OPHIOBOLIN A], for which the GI50 came to 290 nM in assay [1] and 220 nM in assay [2].

One may read the GI50 as the concentration that inhibits growth by half.
